Test results published in patent US20260062422A1 (Halda Therapeutics OpCo, Inc., priority 2022, published 2026).

Columns and labels:
[1] = system: T-Rex 293 cell line SC3 cells having increased expression of androgen receptor protein due to exposure to doxycycline; experiment: Cellular growth inhibition, T-Rex 293 SC3 cells with doxycycline (androgen receptor induced), CellTiter-Glo; format: cell-based; conditions: T-Rex 293 SC3 cells with 10 ng/mL doxycycline (increased androgen receptor expression)
Procedure, shortened: (§1)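 Doxycycline-inducible androgen receptor T-Rex 293 clone SC3, seeded at 2500/well in phenol red-free DMEM with 10% charcoal-dextran FBS, without doxycycline or with 10 ng/mL to induce receptor. Compound added after 24 h (0.5% DMSO), 72 h at 37 °C; CellTiter-Glo 2.0 luminescence, GI50 by four-parameter fit.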

[2] = system: T-Rex 293 cell line SC3 cells lacking increased expression of androgen receptor protein; experiment: Cellular growth inhibition, T-Rex 293 SC3 cells without doxycycline, CellTiter-Glo; format: cell-based; conditions: T-Rex 293 SC3 cells not exposed to doxycycline, CellTiter-Glo 2.0
Procedure, shortened: as §1

T47D cells = experiment: Cellular growth inhibition assay for T47D cells, CellTiter-Glo; format: cell-based, human; conditions: 72 hours treatment, CellTiter-Glo 2.0 cell viability
Procedure, shortened: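 Luminescence from CellTiter-Glo 2.0 after 72 h of compound exposure gives the viability signal. Cells grew in insulin-supplemented (0.2 units/mL) DMEM with 10% FBS and were treated one day after seeding at 0.5% DMSO. GI50 values come from four-parameter nonlinear regression.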

VCaP cells = experiment: Cellular growth inhibition assay for VCaP cells, CellTiter-Glo; format: cell-based, human; conditions: 72 hours treatment, CellTiter-Glo 2.0
Procedure, shortened: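 GI50 values come from four-parameter curve fits of luminescence data normalized to a zero baseline. Compound, in medium with 0.5% DMSO, was added one day after plating and left for 72 h before CellTiter-Glo 2.0 addition.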

Compound	GI50 ([1]; 72 h) [nM]	GI50 ([2]; 72 h) [nM]	GI50 (T47D cells; Homo sapiens, T47D, 72 h) [nM]	GI50 (VCaP cells; Homo sapiens, VCaP, 72 h) [nM]	GI50 ([1]; 72 hours) [nM]	GI50 ([2]; 72 hours) [nM]	GI50 (T47D cells) [nM]	GI50 (VCaP cells) [nM]
Cc1sc2c(c1C)C(c1ccc(C3(N(C)CC4CCN(c5ncc(C(=O)N[C@H]6C(C)(C)[C@H](Oc7ccc(C#N)c(Cl)c7)C6(C)C)cn5)CC4)COC3)cc1)=N[C@@H](C)c1nnc(C)n1-2 [Compound I-377]	> 3000	> 3000	> 3000	> 3000				
Cc1sc2c(c1C)C(c1ccc(C#C[C@H]3C[C@@]4(CCCN(c5ncc(C(=O)N[C@H]6C(C)(C)[C@H](Oc7ccc(C#N)c(Cl)c7)C6(C)C)cn5)C4)C3)cc1)=N[C@@H](C)c1nnc(C)n1-2 [Compound I-378]	< 500	> 3000	> 3000	< 500				
Cc1sc2c(c1C)C(c1ccc(C#C[C@H]3C[C@@]4(CCCN(c5ncc(C(=O)N[C@H]6C(C)(C)[C@H](Oc7ccc(C#N)c(Cl)c7)C6(C)C)cn5)C4)C3)cc1)=N[C@@H](C)c1nnc(C)n1-2 [Compound I-379]					< 500	> 3000	> 3000	< 500
Cc1sc2c(c1C)C(c1ccc(CC3CC4(CCCN(c5ncc(C(=O)N[C@H]6C(C)(C)[C@H](Oc7ccc(C#N)c(Cl)c7)C6(C)C)cn5)C4)C3)cc1)=N[C@@H](C)c1nnc(C)n1-2 [Compound I-380]	< 500	> 3000	> 3000	< 500				
Cc1sc2c(c1C)C(c1ccc(C(=O)N3CCC(C(=O)c4ncc(C(=O)N[C@H]5C(C)(C)[C@H](Oc6ccc(C#N)c(Cl)c6)C5(C)C)cn4)CC3)cc1)=N[C@@H](Cc1ncco1)c1nnc(C)n1-2 [Compound I-381]		> 3000	> 3000	> 3000	> 3000			
Cc1sc2c(c1C)C(c1ccc(C(=O)N3CCC(C(=O)c4ncc(C(=O)N[C@H]5C(C)(C)[C@H](Oc6ccc(C#N)c(Cl)c6)C5(C)C)cn4)CC3)cc1)=N[C@@H](Cc1ncco1)c1nnc(C)n1-2 [Compound I-382]					< 500	> 3000	> 3000	> 3000
Cc1sc2c(c1C)C(c1ccc([C@@H]3CCN(C(=O)[C@@H]4CCCN(c5ncc(C(=O)N[C@H]6C(C)(C)[C@H](Oc7ccc(C#N)c(Cl)c7)C6(C)C)cn5)C4)C3)cc1)=N[C@@H](Cc1ncco1)c1nnc(C)n1-2 [Compound I-383]	> 3000	> 3000	> 3000	> 3000				
Cc1sc2c(c1C)C(c1ccc([C@H]3CCN(C(=O)[C@@H]4CCCN(c5ncc(C(=O)N[C@H]6C(C)(C)[C@H](Oc7ccc(C#N)c(Cl)c7)C6(C)C)cn5)C4)C3)cc1)=N[C@@H](Cc1ncco1)c1nnc(C)n1-2 [Compound I-384]	< 500	< 500	< 500	< 500				
Cc1sc2c(c1C)C(c1ccc(CN3CC(=O)N4CC(c5ncc(C(=O)N[C@H]6C(C)(C)[C@H](Oc7ccc(C#N)c(Cl)c7)C6(C)C)cn5)C[C@H]4C3=O)cc1)=N[C@@H](Cc1ncco1)c1nnc(C)n1-2 (stereo partly drawn) [Compound I-385]	> 3000	> 3000	> 3000	1500 to 3000				
Cc1sc2c(c1C)C(c1ccc([C@@H]3CCN(C(=O)[C@H]4CCCN(c5ncc(C(=O)N[C@H]6C(C)(C)[C@H](Oc7ccc(C#N)c(Cl)c7)C6(C)C)cn5)C4)C3)cc1)=N[C@@H](Cc1ncco1)c1nnc(C)n1-2 [Compound I-386]	> 3000	> 3000	500 to 1500	> 3000				
Cc1sc2c(c1C)C(c1ccc([C@H]3CCN(C(=O)[C@H]4CCCN(c5ncc(C(=O)N[C@H]6C(C)(C)[C@H](Oc7ccc(C#N)c(Cl)c7)C6(C)C)cn5)C4)C3)cc1)=N[C@@H](Cc1ncco1)c1nnc(C)n1-2 [Compound I-387]	< 500	500 to 1500	< 500	< 500				
Cc1sc2c(c1C)C(c1ccc(N3CC4(C3)CC3(CCN(c5ncc(C(=O)N[C@H]6C(C)(C)[C@H](Oc7ccc(C#N)c(Cl)c7)C6(C)C)cn5)CC3)C4)cc1)=N[C@@H](Cc1ncco1)c1nnc(C)n1-2 [Compound I-388]	< 500	> 3000	< 500	< 500				
Cc1sc2c(c1C)C(c1ccc(-c3cc(OC4CCN(c5ncc(C(=O)N[C@H]6C(C)(C)[C@H](Oc7ccc(C#N)c(Cl)c7)C6(C)C)cn5)CC4)ns3)cc1)=N[C@@H](Cc1ncco1)c1nnc(C)n1-2 [Compound I-389]	< 500	> 3000	< 500	500 to 1500				
Cc1sc2c(c1C)C(c1ccc(-c3scnc3OC3CCN(c4ncc(C(=O)N[C@H]5C(C)(C)[C@H](Oc6ccc(C#N)c(Cl)c6)C5(C)C)cn4)CC3)cc1)=N[C@@H](Cc1ncco1)c1nnc(C)n1-2 [Compound I-390]	< 500	> 3000	> 3000	< 500				
Cc1sc2c(c1C)C(c1ccc(OC3CC4(CCN(c5ncc(C(=O)N[C@H]6C(C)(C)[C@H](Oc7ccc(C#N)c(Cl)c7)C6(C)C)cn5)CC4)C3)cc1)=N[C@@H](C)c1nnc(C)n1-2 [Compound I-391]	< 500	> 3000	500 to 1500	1500 to 3000				
Cc1sc2c(c1C)C(c1ccc(O[C@H]3C[C@@]4(CCCN(c5ncc(C(=O)N[C@H]6C(C)(C)[C@H](Oc7ccc(C#N)c(Cl)c7)C6(C)C)cn5)C4)C3)cc1)=N[C@@H](C)c1nnc(C)n1-2 [Compound I-392]	< 500	> 3000	500 to 1500	500 to 1500				
Cc1sc2c(c1C)C(c1ccc(C[C@H]3C[C@@]4(CCCN(c5ncc(C(=O)N[C@H]6C(C)(C)[C@H](Oc7ccc(C#N)c(Cl)c7)C6(C)C)cn5)C4)C3)cc1)=N[C@@H](C)c1nnc(C)n1-2 [Compound I-393]	< 500	> 3000	> 3000	< 500				
Cc1sc2c(c1C)C(c1ccc(C[C@H]3C[C@]4(CCCN(c5ncc(C(=O)N[C@H]6C(C)(C)[C@H](Oc7ccc(C#N)c(Cl)c7)C6(C)C)cn5)C4)C3)cc1)=N[C@@H](C)c1nnc(C)n1-2 [Compound I-394]	< 500	> 3000	< 500	< 500				
Cc1sc2c(c1C)C(c1ccc(COC3CC4(CCCN(c5ncc(C(=O)N[C@H]6C(C)(C)[C@H](Oc7ccc(C#N)c(Cl)c7)C6(C)C)cn5)C4)C3)cc1)=N[C@@H](C)c1nnc(C)n1-2 [Compound I-395]	< 500	> 3000	< 500	< 500				
Cc1sc2c(c1C)C(c1ccc(C(C)(C)N3CC4(CCN(c5ncc(C(=O)N[C@H]6C(C)(C)[C@H](Oc7ccc(C#N)c(Cl)c7)C6(C)C)cn5)CC4)C3)cc1)=N[C@@H](Cc1ncco1)c1nnc(C)n1-2 [Compound I-396]			> 3000		> 3000	> 3000		> 3000
Cc1sc2c(c1C)C(c1ccc(C3CC(C4CCN(c5ncc(C(=O)N[C@H]6C(C)(C)[C@H](Oc7ccc(C#N)c(Cl)c7)C6(C)C)cn5)CC4)C3)cc1)=N[C@@H](Cc1ncco1)c1nnc(C)n1-2 (stereo partly drawn) [Compound I-397]	> 3000	> 3000	> 3000	> 3000				
Cc1sc2c(c1C)C(c1ccc([C@H]3C[C@@H](C4CCN(c5ncc(C(=O)N[C@H]6C(C)(C)[C@H](Oc7ccc(C#N)c(Cl)c7)C6(C)C)cn5)CC4)C3)cc1)=N[C@@H](Cc1ncco1)c1nnc(C)n1-2 [Compound I-398]	< 500	> 3000	< 500	< 500				
Cc1sc2c(c1C)C(c1ccc([C@H]3C[C@H](C4CCN(c5ncc(C(=O)N[C@H]6C(C)(C)[C@H](Oc7ccc(C#N)c(Cl)c7)C6(C)C)cn5)CC4)C3)cc1)=N[C@@H](Cc1ncco1)c1nnc(C)n1-2 [Compound I-399]	< 500	> 3000	< 500	500 to 1500				
Cc1sc2c(c1C)C(c1ccc([C@H]3C[C@@H](C[C@@H]4CCCN(c5ncc(C(=O)N[C@H]6C(C)(C)[C@H](Oc7ccc(C#N)c(Cl)c7)C6(C)C)cn5)C4)C3)cc1)=N[C@@H](Cc1ncco1)c1nnc(C)n1-2 [Compound I-400]	> 3000	> 3000	> 3000	> 3000				
Cc1sc2c(c1C)C(c1ccc([C@H]3C[C@@H](C[C@@H]4CCCN(c5ncc(C(=O)N[C@H]6C(C)(C)[C@H](Oc7ccc(C#N)c(Cl)c7)C6(C)C)cn5)C4)C3)cc1)=N[C@@H](Cc1ncco1)c1nnc(C)n1-2 [Compound I-401]					> 3000	> 3000	> 3000	> 3000
Cc1sc2c(c1C)C(c1ccc([C@H]3C[C@H](C[C@@H]4CCCN(c5ncc(C(=O)N[C@H]6C(C)(C)[C@H](Oc7ccc(C#N)c(Cl)c7)C6(C)C)cn5)C4)C3)cc1)=N[C@@H](Cc1ncco1)c1nnc(C)n1-2 [Compound I-402]	< 500	> 3000	< 500					500 to 1500
Cc1sc2c(c1C)C(c1ccc([C@H]3C[C@H](C[C@@H]4CCCN(c5ncc(C(=O)N[C@H]6C(C)(C)[C@H](Oc7ccc(C#N)c(Cl)c7)C6(C)C)cn5)C4)C3)cc1)=N[C@@H](Cc1ncco1)c1nnc(C)n1-2 [Compound I-403]					< 500	> 3000	< 500	> 3000
